# According to the supplement of paper PMC10307832:
# Key:
# Test in all cases: relative viability (nuclei count vs DMSO), 5 days (fraction); higher = more cells survive
# CX-5461 + Tozasertib = compound: Cc1cnc(CNC(=O)c2c(=O)c3ccc(N4CCCN(C)CC4)nc3n3c2sc2ccccc23)cn1 [CX-5461] + Cc1cc(Nc2cc(N3CCN(C)CC3)nc(Sc3ccc(NC(=O)C4CC4)cc3)n2)n[nH]1 [Tozasertib] (partner 0.1 µM)
# Procedure, shortened: (§1)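 For relative viability, nuclei counts in treated wells were divided by those in vehicle wells. Lung cancer cell lines had been pin-tool dosed in 1536-well plates the day after seeding and cultured for 5 days, then fixed and stained in one step (final 0.05% Triton X-100, 1% formaldehyde, 1 ug/ml Hoechst) and imaged at 4×. Doses were one drug alone or a fixed anchor-drug dose plus five library-drug doses (not always all listed) in √10 steps, and values are duplicate-plate medians.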
# IMD-0354 + Navitoclax = compound: O=C(Nc1cc(C(F)(F)F)cc(C(F)(F)F)c1)c1cc(Cl)ccc1O [IMD-0354] + CC1(C)CCC(c2ccc(Cl)cc2)=C(CN2CCN(c3ccc(C(=O)NS(=O)(=O)c4ccc(N[C@H](CCN5CCOCC5)CSc5ccccc5)c(S(=O)(=O)C(F)(F)F)c4)cc3)CC2)C1 [Navitoclax] (partner 0.5 µM)
# Procedure, shortened: as §1
# IMD-0354 + Crizotinib = compound: O=C(Nc1cc(C(F)(F)F)cc(C(F)(F)F)c1)c1cc(Cl)ccc1O [IMD-0354] + C[C@@H](Oc1cc(-c2cnn(C3CCNCC3)c2)cnc1N)c1c(Cl)ccc(F)c1Cl [Crizotinib] (partner 1 µM)
# Procedure, shortened: as §1
# IMD-0354 + Pemetrexed = compound: O=C(Nc1cc(C(F)(F)F)cc(C(F)(F)F)c1)c1cc(Cl)ccc1O [IMD-0354] + Nc1nc2[nH]cc(CCc3ccc(C(=O)N[C@@H](CCC(=O)O)C(=O)O)cc3)c2c(=O)[nH]1 [Pemetrexed] (partner 0.2 µM)
# Procedure, shortened: as §1
Cell Line,relative viability (CX-5461 + Tozasertib; first compound 0.01 µM),relative viability (CX-5461 + Tozasertib; first compound 0.03162 µM),relative viability (CX-5461 + Tozasertib; first compound 0.1 µM),relative viability (CX-5461 + Tozasertib; first compound 0.3162 µM),relative viability (CX-5461 + Tozasertib; first compound 1 µM),relative viability (IMD-0354 + Navitoclax; first compound 0.04 µM),relative viability (IMD-0354 + Navitoclax; first compound 0.1265 µM),relative viability (IMD-0354 + Navitoclax; first compound 0.4 µM),relative viability (IMD-0354 + Navitoclax; first compound 1.265 µM),relative viability (IMD-0354 + Navitoclax; first compound 4 µM),relative viability (IMD-0354 + Crizotinib; first compound 0.04 µM),relative viability (IMD-0354 + Crizotinib; first compound 0.1265 µM),relative viability (IMD-0354 + Crizotinib; first compound 0.4 µM),relative viability (IMD-0354 + Crizotinib; first compound 1.265 µM),relative viability (IMD-0354 + Crizotinib; first compound 4 µM),relative viability (IMD-0354 + Pemetrexed; first compound 0.04 µM),relative viability (IMD-0354 + Pemetrexed; first compound 0.1265 µM),relative viability (IMD-0354 + Pemetrexed; first compound 0.4 µM),relative viability (IMD-0354 + Pemetrexed; first compound 1.265 µM),relative viability (IMD-0354 + Pemetrexed; first compound 4 µM)
HCC-44,1.05,1.25,0.922,0.811,0.29,0.953,0.951,0.446,0.203,0.215,0.893,0.785,0.361,0.169,0.169,0.733,0.692,0.595,0.354,0.344
HCC-827,0.451,0.376,0.425,0.411,0.43,0.983,0.955,0.892,0.759,0.293,1,0.881,0.736,0.498,0.263,0.26,0.267,0.243,0.19,0.163
NCI-H1623,0.465,0.406,0.44,0.463,0.372,–,–,–,–,–,–,–,–,–,–,–,–,–,–,–
NCI-H1793,0.281,0.332,0.426,–,0.315,0.356,0.472,0.391,0.282,0.246,–,–,–,–,–,0.971,0.795,0.446,0.191,0.257
NCI-H1563,–,–,–,–,–,–,–,–,–,–,0.904,0.774,0.822,0.484,0.44,0.815,0.9,0.669,0.5,0.231
NCI-H1395,0.811,0.796,0.757,0.574,0.588,1.15,1.24,0.931,0.389,0.311,–,–,–,–,–,0.986,0.81,0.616,0.334,0.323
ABC-1,0.15,0.194,0.188,–,0.186,–,–,–,–,–,1.42,1.22,0.765,0.221,0.269,–,–,–,–,–
SW 900,0.555,0.525,0.544,0.609,0.537,–,–,–,–,–,–,–,–,–,–,0.544,0.519,0.329,0.182,0.196
NCI-H1648,–,0.654,0.607,0.397,0.514,–,–,–,–,–,–,–,–,–,–,0.653,0.693,0.401,0.455,0.277
A549,–,–,–,–,–,1.37,1.19,0.54,0.0726,0.0514,0.834,0.764,0.265,0.0905,0.121,–,–,–,–,–
NCI-H1792,–,–,–,–,–,0.761,0.564,1.66,0.346,0.482,1.14,0.959,0.696,0.512,0.391,1.01,0.57,0.493,0.163,0.152
